According to PMC6211260 (Journal of Enzyme Inhibition and Medicinal Chemistry, 2018):

Assays:
Format in all cases: cell-based
[1] = system: SK-MEL-5 melanoma cell line; assay: NCI five-dose testing; conditions: Homo sapiens; for IC50 / IC (TGI): SK-MEL-5; for LC50 (lethal concentration 50): SK-MEL-5, read-out: LD50 (lethal dose 50); for IC (TGI): read-out: TGI (total growth inhibition concentration)
Experimental: (§1) Screening against the cancer cell lines was carried out at the National Cancer Institute (NCI, Bethesda, Maryland, USA) applying the standard protocol of the NCI[22].

[2] = system: HOP-92 non-small cell lung cancer cell line; assay: NCI five-dose testing; conditions: Homo sapiens; for IC50: HOP-92; for IC (TGI): HOP-92, HOP-92, read-out: TGI (total growth inhibition concentration); for LD50 (lethal dose 50): HOP-92, read-out: LD50 (lethal dose 50)
Experimental: as §1

[3] = system: A498 renal cancer cell line; assay: NCI five-dose testing; conditions: Homo sapiens; for IC50 / IC (TGI): A498; for LC50 (lethal concentration 50%): A498, read-out: LD50 (lethal dose 50); for IC (TGI): read-out: TGI (total growth inhibition concentration)
Experimental: as §1

[4] = system: K-562 leukaemia cell line; assay: NCI five-dose testing; conditions: Homo sapiens; for CC50: K562, read-out: LD50 (lethal dose 50); for IC50 / IC (TGI): K562, K-562; for IC (TGI): read-out: TGI (total growth inhibition concentration)
Experimental: as §1

[5] = system: U251 CNS cancer cell line; assay: NCI five-dose testing; conditions: Homo sapiens; for CC50: U-251, read-out: LD50 (lethal dose 50); for IC50 / IC (TGI): U-251, U251; for IC50: read-out: IC50; for IC (TGI): read-out: TGI (total growth inhibition concentration)
Experimental: as §1

[6] = system: OVCAR-4 ovarian cancer cell line; assay: NCI five-dose testing; conditions: Homo sapiens; for IC50 / IC (TGI): OVCAR-4; for LC50 (lethal concentration 50): OVCAR-4, read-out: LD50 (lethal dose 50); for IC (TGI): read-out: TGI (total growth inhibition concentration)
Experimental: as §1

[7] = system: HT-29 colon cancer cell line; assay: NCI five-dose testing; conditions: Homo sapiens; for CC50: HT-29, read-out: LD50 (lethal dose 50); for IC50 / IC (TGI): HT-29; for IC50: read-out: IC50; for IC (TGI): read-out: TGI (total growth inhibition concentration)
Experimental: as §1

[8] = system: PC-3 prostate cancer cell line; assay: NCI five-dose testing; conditions: Homo sapiens; for LC50 (lethal concentration 50): PC-3, read-out: LD50 (lethal dose 50); for IC50 / IC (TGI): PC-3; for IC50: read-out: IC50; for IC (TGI): read-out: TGI (total growth inhibition concentration)
Experimental: as §1

[9] = system: MDA-MB-468 breast cancer cell line; assay: NCI five-dose testing; conditions: Homo sapiens; for IC50 / IC (TGI): MDA-MB-468; for CC50: MDA-MB-468, read-out: LD50 (lethal dose 50); for IC (TGI): read-out: TGI (total growth inhibition concentration)
Experimental: as §1

NCI-60 cell line panel = assay: NCI-60 single-dose (10 µM) antiproliferative screening, mean over panel; conditions: single-dose 10 µM, 60-cancer cell line screening
Experimental: as §1
The final target compounds were submitted to the National Cancer Institute (NCI), Maryland, USA[23]. Thirty-one compounds were selected to be tested over 60 cell lines at single dose 10 µM.

colon cancer cell lines = assay: NCI five-dose testing, subpanel mean; conditions: subpanel III: colon cancer
Experimental: as §1

renal cancer cell lines = assay: NCI five-dose testing, subpanel mean; conditions: subpanel VII: renal cancer
Experimental: as §1

breast cancer cell lines = assay: NCI five-dose testing, subpanel mean; conditions: subpanel IX: breast cancer
Experimental: as §1

CNS cancer cell lines = assay: NCI five-dose testing, subpanel mean; conditions: subpanel IV: CNS cancer
Experimental: as §1

[10] = system: prostate cancer cell lines; assay: NCI five-dose testing, subpanel mean; conditions: subpanel VIII: prostate cancer
Experimental: as §1

melanoma cell lines = assay: NCI five-dose testing, subpanel mean; conditions: subpanel V: melanoma
Experimental: as §1

[11] = system: ovarian cancer cell lines; assay: NCI five-dose testing, subpanel mean; conditions: subpanel VI: ovarian cancer
Experimental: as §1

Leukaemia cell lines = assay: NCI five-dose testing, subpanel mean; conditions: subpanel I: Leukaemia
Experimental: as §1

[12] = system: non-small cell lung cancer cell lines; assay: NCI five-dose testing, subpanel mean; conditions: subpanel II: non-small cell lung cancer
Experimental: as §1

Row | Compound | IC50 [1] [µM] | LC50 (lethal concentration 50) [1] [µM] | IC (TGI) [1] [µM] | IC50 [2] [µM] | IC (TGI) [2] [µM] | LD50 (lethal dose 50) [2] [µM] | IC50 [3] [µM] | LC50 (lethal concentration 50%) [3] [µM] | IC (TGI) [3] [µM] | CC50 [4] [µM] | IC50 [4] [µM] | IC (TGI) [4] [µM] | CC50 [5] [µM] | IC50 [5] [µM] | IC (TGI) [5] [µM] | IC50 [6] [µM] | LC50 (lethal concentration 50) [6] [µM] | IC (TGI) [6] [µM] | CC50 [7] [µM] | IC50 [7] [µM] | further results
1 | COc1cccc(-c2nn(-c3ccccc3)cc2-c2ccnc(NCCNS(=O)(=O)c3ccc(C(F)(F)F)cc3)c2)c1 [Compound 1g, N-(2-((4-(3-(3-Methoxyphenyl)-1-phenyl-1H-pyrazol-4-yl)pyridin-2-yl)amino)ethyl)-4-(trifluoromethyl)benzenesulfonamide] | 1.72 | 5.6 | 3.1 | 2.12 | 6.8 | > 100 | 3.4 | > 100 | 6.5 | > 100 | 2.87 | 19 | 63.4 | 3.54 | 13.9 | 2.94 | > 100 | > 100 | 37.7 | 2.32 | IC (TGI) [7]: 5.7 µM; LC50 (lethal concentration 50) [8]: > 100 µM; IC50 [8]: 2.86 µM; IC (TGI) [8]: 26.7 µM; IC50 [9]: 3.31 µM; CC50 [9]: > 100 µM; IC (TGI) [9]: > 100 µM; inhibition at 10 µM (NCI-60 cell line panel): 92.8%; IC50 (colon cancer cell lines): 4.91 µM; IC50 (renal cancer cell lines): 5.32 µM; IC50 (breast cancer cell lines): 4.05 µM; IC50 (CNS cancer cell lines): 5.28 µM; IC50 [10]: 13 µM; IC50 (melanoma cell lines): 4.94 µM; IC50 [11]: 6.1 µM; IC50 (Leukaemia cell lines): 3.35 µM; IC50 [12]: 6.36 µM
2 | COc1cccc(-c2nn(-c3ccccc3)cc2-c2ccnc(NCCCNS(=O)(=O)c3cccc(F)c3)c2)c1 [Compound 2h, 3-Fluoro-N-(3-((4-(3-(3-methoxyphenyl)-1-phenyl-1H-pyrazol-4-yl)pyridin-2-yl)amino)propyl)benzenesulfonamide] | 1.86 | 7.6 | 3.7 | 2.42 | > 100 | > 100 | 3.52 | > 100 | > 100 | > 100 | 3.31 | > 100 | > 100 | 4.83 | > 100 | 3.28 | > 100 | > 100 | > 100 | 2.87 | IC (TGI) [7]: 18.8 µM; LC50 (lethal concentration 50) [8]: > 100 µM; IC50 [8]: 2.97 µM; IC (TGI) [8]: > 100 µM; IC50 [9]: 3.49 µM; CC50 [9]: > 100 µM; IC (TGI) [9]: 30.4 µM; inhibition at 10 µM (NCI-60 cell line panel): 76.8%; IC50 (colon cancer cell lines): 4.69 µM; IC50 (renal cancer cell lines): 4.25 µM; IC50 (breast cancer cell lines): 3.49 µM; IC50 (CNS cancer cell lines): 4.49 µM; IC50 [10]: 4.65 µM; IC50 (melanoma cell lines): 4.14 µM; IC50 [11]: 3.88 µM; IC50 (Leukaemia cell lines): 3.18 µM; IC50 [12]: 5.01 µM
3 | O=S(=O)(NCCCNc1cc(-c2cn(-c3ccccc3)nc2-c2cccc(O)c2)ccn1)c1cccc2ccccc12 [Compound 2q, N-(3-((4-(3-(3-Hydroxyphenyl)-1-phenyl-1H-pyrazol-4-yl)pyridin-2-yl)amino)propyl) naphthalene-1-sulfonamide] | 1.53 | 7.4 | 3.4 | 1.56 | 7.2 | > 100 | 1.1 | > 100 | 6.6 | > 100 | 0.92 | 4.4 | 41.3 | 1.28 | 13.2 | 1.92 | > 100 | > 100 | 4.5 | 1.23 | IC (TGI) [7]: 1.7 µM; LC50 (lethal concentration 50) [8]: > 100 µM; IC50 [8]: 1.93 µM; IC (TGI) [8]: 44.9 µM; IC50 [9]: 1.8 µM; CC50 [9]: > 100 µM; IC (TGI) [9]: 6 µM; IC50 (colon cancer cell lines): 2.62 µM; IC50 (renal cancer cell lines): 2.99 µM; IC50 (breast cancer cell lines): 1.95 µM; IC50 (CNS cancer cell lines): 2.33 µM; IC50 [10]: 3.44 µM; IC50 (melanoma cell lines): 2.27 µM; IC50 [11]: 5.28 µM; IC50 (Leukaemia cell lines): 1.96 µM; IC50 [12]: 3.05 µM
